# According to patent publication EP0284492A1, “Peptidic fractions inducing protective antibodies against the bovine leukemia virus, process for obtaining such fractions, their coding sequences and vaccines produced by these fractions” (RHONE MERIEUX, priority 1987, dated 1988):
# Ends that are not written are not given here.
# Key:
# pseudotypes VSV (BLV) = format: cell-based, virus BLV
# [1] = system: sérums d'animaux infectés par le virus BLV; format: binding, bovin, ovin
sequence,measurement,setting,value
"EPRCPYVGADHFDCP (cysteine pairing not given here) [peptide 78-92, séquence 78-92 de la gp51]",capacité à inhiber les pseudotypes,pseudotypes VSV (BLV),remarquable capacité à inhiber les pseudotypes
same,induction d'anticorps neutralisants,pseudotypes VSV (BLV),induire des anticorps neutralisants
same,reconnaissance de l'oligopeptide par les sérums,[1],reconnu à la fois par le sérum bovin (sérum n° 15) et le sérum ovin (sérum n° 65)
